Assay results: patent publication US20100298141A1, “SUBSTITUTED PYRIDINE N-OXIDE HERBICIDES” (E. I. DU PONT DE NEMOURS AND COMPANY, priority 2007, published 2010)

Experiments:
[1] = test system: dallisgrass; test: Test F preemergence test; assay type: in vivo, Paspalum dilatatum; conditions: scale 0 to 100
Method in brief: (§1)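 Compounds in a non-phytotoxic solvent formulation with surfactant were applied before emergence after sowing, or, for sugarcane, also postemergence. Evaluation was visual, against controls, after 14 to 21 greenhouse days.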

[2] = test system: quackgrass; test: Test F preemergence test; assay type: in vivo, Elytrigia repens; conditions: scale 0 to 100
Method in brief: as §1

[3] = test system: prickly sida; test: Test F preemergence test; assay type: in vivo, Sida spinosa; conditions: scale 0 to 100
Method in brief: as §1

[4] = test system: common purslane; test: Test F preemergence test; assay type: in vivo, Portulaca oleracea; conditions: scale 0 to 100
Method in brief: as §1

[5] = test system: barnyardgrass; test: Test F preemergence test; assay type: in vivo, Echinochloa crus-galli
Method in brief: as §1

[6] = test system: windgrass; test: Test C pre-/postemergence test; assay type: in vivo, Apera spica-venti; conditions: Postemergence; for Plant response rating, Windgrass: scale 0 to 100, 0 no effect, 100 complete control
[7] = test system: guineagrass; test: Test F preemergence test; assay type: in vivo, Panicum maximum; conditions: scale 0 to 100
Method in brief: as §1

[8] = test system: common groundsel; test: Test F preemergence test; assay type: in vivo, Senecio vulgaris; conditions: scale 0 to 100
Method in brief: as §1

[9] = test system: mustard; test: Test F preemergence test; assay type: in vivo, Brassica nigra; conditions: scale 0 to 100
Method in brief: as §1

[10] = test system: common mallow; test: Test F preemergence test; assay type: in vivo, Malva sylvestris; conditions: scale 0 to 100
Method in brief: as §1

[11] = test system: southern sandbur; test: Test F preemergence test; assay type: in vivo, Cenchrus echinatus; conditions: scale 0 to 100
Method in brief: as §1

[12] = test system: field bindweed; test: Test F preemergence test; assay type: in vivo, Convolvulus arvensis; conditions: scale 0 to 100
Method in brief: as §1

[13] = test system: green foxtail; test: Test F preemergence test; assay type: in vivo, Setaria viridis; conditions: scale 0 to 100
Method in brief: as §1

[14] = test system: itchgrass; test: Test F preemergence test; assay type: in vivo, Rottboellia cochinchinensis; conditions: scale 0 to 100
Method in brief: as §1

[15] = 62 g ai/ha, Preemergence, scale 0 to 100
[16] = Preemergence, 31 g ai/ha, scale 0 to 100

SMILES: Cn1nc(C(F)(F)F)c(C[S+]([O-])c2ccc(F)c[n+]2[O-])c1OCC(F)(F)F (stereo not shown) [Compound 67]
- Plant response rating, Dallisgrass ([1]; 16 g ai/ha, preemergence): 0
- Dallisgrass plant response rating ([1]; 62 g ai/ha, Preemergence): 95
- Dallisgrass plant response rating ([1]; 125 g ai/ha, preemergence): 100
- Plant response rating, Dallisgrass ([1]; Preemergence, 31 g ai/ha): 40
- Plant response rating, Quackgrass ([2]; 16 g ai/ha, preemergence): 60
- Quackgrass plant response rating ([2]; 62 g ai/ha, Preemergence): 85
- Quackgrass plant response rating ([2]; 125 g ai/ha, preemergence): 98
- Plant response rating, Quackgrass ([2]; Preemergence, 31 g ai/ha): 75
- Plant response rating, Prickly Sida ([3]; 16 g ai/ha, preemergence): 0
- Prickly Sida plant response rating ([3]; 62 g ai/ha, Preemergence): 90
- Prickly Sida plant response rating ([3]; 125 g ai/ha, preemergence): 98
- Plant response rating, Prickly Sida ([3]; Preemergence, 31 g ai/ha): 65
- Plant response rating, Purslane ([4]; 16 g ai/ha, preemergence): 0
- Purslane plant response rating ([4]; 62 g ai/ha, Preemergence): 95
- Purslane plant response rating ([4]; 125 g ai/ha, preemergence): 100
- Plant response rating, Purslane ([4]; Preemergence, 31 g ai/ha): 0
- Plant response rating, Barnyardgrass ([5]; 16 g ai/ha, preemergence, scale 0 to 100 (0 no effect, 100 complete control)): 75
- Barnyardgrass plant response rating [5, 15]: 100
- Barnyardgrass plant response rating ([5]; 125 g ai/ha, preemergence, scale 0 to 100): 100
- Plant response rating, Barnyardgrass [5, 16]: 90
- Plant response rating (0 to 100), Windgrass ([6]; 31 g ai/ha): 30
- Plant response rating (0 to 100), Windgrass ([6]; 62 g ai/ha): 100
- Plant response rating, Windgrass ([6]; 125 g ai/ha): 100
- Plant response rating, Windgrass ([6]; 250 g ai/ha): 100
- Plant response rating, Guineagrass ([7]; 16 g ai/ha, preemergence): 0
- Guineagrass plant response rating ([7]; 62 g ai/ha, Preemergence): 100
- Guineagrass plant response rating ([7]; 125 g ai/ha, preemergence): 100
- Plant response rating, Guineagrass ([7]; Preemergence, 31 g ai/ha): 95
- Plant response rating, Groundsel ([8]; 16 g ai/ha, preemergence): 0
- Groundsel plant response rating ([8]; 62 g ai/ha, Preemergence): 80
- Groundsel plant response rating ([8]; 125 g ai/ha, preemergence): 98
- Plant response rating, Groundsel ([8]; Preemergence, 31 g ai/ha): 25
- Plant response rating, Black Mustard ([9]; 16 g ai/ha, preemergence): 0
- Black Mustard plant response rating ([9]; 62 g ai/ha, Preemergence): 100
- Black Mustard plant response rating ([9]; 125 g ai/ha, preemergence): 100
- Plant response rating, Black Mustard ([9]; Preemergence, 31 g ai/ha): 75
- Plant response rating, Mallow ([10]; 16 g ai/ha, preemergence): 0
- Mallow plant response rating ([10]; 62 g ai/ha, Preemergence): 100
- Mallow plant response rating ([10]; 125 g ai/ha, preemergence): 100
- Plant response rating, Mallow ([10]; Preemergence, 31 g ai/ha): 15
- Plant response rating, Sandbur ([11]; 16 g ai/ha, preemergence): 60
- Sandbur plant response rating ([11]; 125 g ai/ha, preemergence): 100
- Plant response rating, Sandbur ([11]; Preemergence, 62 g ai/ha): 100
- Plant response rating, Sandbur ([11]; Preemergence, 31 g ai/ha): 100
- Plant response rating, Field Bindweed ([12]; 16 g ai/ha, preemergence): 0
- Field Bindweed plant response rating ([12]; 62 g ai/ha, Preemergence): 35
- Field Bindweed plant response rating ([12]; 125 g ai/ha, preemergence): 80
- Plant response rating, Field Bindweed ([12]; Preemergence, 31 g ai/ha): 10
- Plant response rating, Foxtail, Green ([13]; 16 g ai/ha, preemergence): 40
- Foxtail, Green plant response rating ([13]; 62 g ai/ha, Preemergence): 80
- Foxtail, Green plant response rating ([13]; 125 g ai/ha, preemergence): 100
- Plant response rating, Foxtail, Green ([13]; Preemergence, 31 g ai/ha): 60
- Plant response rating, Itchgrass ([14]; 16 g ai/ha, preemergence): 15
- Itchgrass plant response rating ([14]; 62 g ai/ha, Preemergence): 65
- Itchgrass plant response rating ([14]; 125 g ai/ha, preemergence): 100
- Plant response rating, Itchgrass ([14]; Preemergence, 31 g ai/ha): 25

SMILES: Cc1cc[n+]([O-])c(S(=O)(=O)Cc2c(C(F)(F)F)nn(C)c2OC(F)F)c1 [Compound 2]
- Plant response rating, Dallisgrass ([1]; 8 g ai/ha, preemergence): 0
- Dallisgrass plant response rating ([1]; 62 g ai/ha, Preemergence): 65
- Plant response rating, Dallisgrass ([1]; Preemergence, 16 g ai/ha): 0
- Plant response rating, Dallisgrass ([1]; Preemergence, 31 g ai/ha): 10
- Plant response rating, Quackgrass ([2]; 8 g ai/ha, preemergence): 0
- Quackgrass plant response rating ([2]; 62 g ai/ha, Preemergence): 60
- Plant response rating, Quackgrass ([2]; Preemergence, 16 g ai/ha): 0
- Plant response rating, Quackgrass ([2]; Preemergence, 31 g ai/ha): 20
- Plant response rating, Prickly Sida ([3]; 8 g ai/ha, preemergence): 0
- Prickly Sida plant response rating ([3]; 62 g ai/ha, Preemergence): 80
- Plant response rating, Prickly Sida ([3]; Preemergence, 16 g ai/ha): 0
- Plant response rating, Prickly Sida ([3]; Preemergence, 31 g ai/ha): 40
- Plant response rating, Purslane ([4]; 8 g ai/ha, preemergence): 0
- Purslane plant response rating ([4]; 62 g ai/ha, Preemergence): 50
- Plant response rating, Purslane ([4]; Preemergence, 16 g ai/ha): 0
- Plant response rating, Purslane ([4]; Preemergence, 31 g ai/ha): 40
- Plant response rating, Barnyardgrass ([5]; 8 g ai/ha, preemergence, scale 0 to 100): 0
- Barnyardgrass plant response rating [5, 15]: 100
- Plant response rating, Barnyardgrass ([5]; Preemergence, 16 g ai/ha, scale 0 to 100): 10
- Plant response rating, Barnyardgrass [5, 16]: 80
- Plant response rating (0 to 100), Windgrass ([6]; 31 g ai/ha): 0
- Plant response rating (0 to 100), Windgrass ([6]; 62 g ai/ha): 10
- Plant response rating, Windgrass ([6]; 125 g ai/ha): 50
- Plant response rating, Windgrass ([6]; 250 g ai/ha): 70
- Plant response rating, Guineagrass ([7]; 8 g ai/ha, preemergence): 0
- Guineagrass plant response rating ([7]; 62 g ai/ha, Preemergence): 100
- Plant response rating, Guineagrass ([7]; Preemergence, 16 g ai/ha): 65
- Plant response rating, Guineagrass ([7]; Preemergence, 31 g ai/ha): 90
- Plant response rating, Groundsel ([8]; 8 g ai/ha, preemergence): 0
- Groundsel plant response rating ([8]; 62 g ai/ha, Preemergence): 50
- Plant response rating, Groundsel ([8]; Preemergence, 16 g ai/ha): 0
- Plant response rating, Groundsel ([8]; Preemergence, 31 g ai/ha): 50
- Plant response rating, Black Mustard ([9]; 8 g ai/ha, preemergence): 0
- Black Mustard plant response rating ([9]; 62 g ai/ha, Preemergence): 80
- Plant response rating, Black Mustard ([9]; Preemergence, 16 g ai/ha): 25
- Plant response rating, Black Mustard ([9]; Preemergence, 31 g ai/ha): 80
- Plant response rating, Mallow ([10]; 8 g ai/ha, preemergence): 0
- Mallow plant response rating ([10]; 62 g ai/ha, Preemergence): 35
- Plant response rating, Mallow ([10]; Preemergence, 16 g ai/ha): 0
- Plant response rating, Mallow ([10]; Preemergence, 31 g ai/ha): 0
- Plant response rating, Sandbur ([11]; 8 g ai/ha, preemergence): 0
- Plant response rating, Sandbur ([11]; 16 g ai/ha, preemergence): 0
- Sandbur plant response rating ([11]; 62 g ai/ha, Preemergence): 100
- Plant response rating, Sandbur ([11]; Preemergence, 31 g ai/ha): 30
- Plant response rating, Field Bindweed ([12]; 8 g ai/ha, preemergence): 0
- Field Bindweed plant response rating ([12]; 62 g ai/ha, Preemergence): 0
- Plant response rating, Field Bindweed ([12]; Preemergence, 16 g ai/ha): 0
- Plant response rating, Field Bindweed ([12]; Preemergence, 31 g ai/ha): 0
- Plant response rating, Foxtail, Green ([13]; 8 g ai/ha, preemergence): 0
- Foxtail, Green plant response rating ([13]; 62 g ai/ha, Preemergence): 80
- Plant response rating, Foxtail, Green ([13]; Preemergence, 16 g ai/ha): 20
- Plant response rating, Foxtail, Green ([13]; Preemergence, 31 g ai/ha): 65
- Plant response rating, Itchgrass ([14]; 8 g ai/ha, preemergence): 0
- Itchgrass plant response rating ([14]; 62 g ai/ha, Preemergence): 70
- Plant response rating, Itchgrass ([14]; Preemergence, 16 g ai/ha): 20
- Plant response rating, Itchgrass ([14]; Preemergence, 31 g ai/ha): 60
